Assay results: article PMC6983991, “Toxicity and Anti-promastigote Activity of Benzoxazinoid Analogs Against Leishmania (Viannia) braziliensis and Leishmania (Leishmania) infantum” (Advanced Pharmaceutical Bulletin, 2019)
In brackets after ≈: the same amount, converted by molar mass. Where two headings read alike, the source gives them in different places.

Tests used:
[1] = Cytotoxicity, MTT assay; format: cell-based; conditions: hamster spleen cells, 48 h exposure
Method: (§1) Hamster spleen cells were used to test cytotoxicity. The cells were kindly provided by Dr. Rosy Iara Maciel de Azambuja Ribeiro from of Laboratory of Experimental Pathology/UFSJ. The cells were cultivated in saline solution (NaCl 0.9%; Synth, Brazil) and maintained at 37°C in an incubator with an atmosphere containing 5% CO2 (Thermo Fisher Scientific, Waltham, USA).
(§2) Cytotoxic concentration determinations for 50% of the cells in culture (CC50) were evaluated by using the colorimetric 3-(4,5-dimethylthiazol-2-yl)-2,5-diphenyltetrazolium bromide (MTT) method, following protocols outlined in a previous study.[19] Briefly, spleen cells were exposed for 48h to several concentrations of compounds (3, 6.25, 12.5, 25, 50, 100, 200, 400 and 800 µg/mL) and, afterward, the MTT assay was used to quantify the cell viability as was done using the anti-promastigote assay. Finally, CC50 values were calculated by linear regression analysis of absorbance values obtained previously.[20]
(§3) The selectivity of Bex analogs and antileishmanial agents was determined to evaluate the safety of compounds. Thus, the selectivity index (SI) was calculated through the ratio between the CC50 of compounds against the hamster spleen cells and the geometric mean (GM) of IC50 values calculated for L. (V.) braziliensis and L. (L.) infantum.[21] In the case where CC50 was higher than the highest concentration tested of the compound, to calculate the SI, the value used was 400. The larger SI was indicative of a safer molecule.

[2] = test system: Leishmania (L.) infantum (MHOM/BR/74/PP75) promastigotes; assay: Anti-promastigote activity, MTT colorimetric assay; format: cell-based
Method: (§4) Promastigotes of Leishmania (V.) braziliensis (MHOM/BR/75/M2903) and Leishmania (L.) infantum (MHOM/BR/74/PP75) were grown in a biphasic medium. The solid phase was composed of Nicolle–Novy–MacNeals (NNN) medium with 15% defibrillated rabbit blood. Already in the liquid phase, we employed Roswell Park Memorial Institute (RPMI)-1640 (Sigma-Aldrich, St. Louis, USA) or Liver Infusion Tryptose (LIT) medium with 15% fetal bovine serum (Gibco – Thermo Fisher Scientific, Waltham USA), both supplemented with 1% of penicillin-streptomycin antibiotic solutions (10.000 U/mL of penicillin and 10.000 μg/mL of streptomycin; Gibco – Thermo Fisher Scientific, Waltham, USA). Cultures were maintained in an incubator at 25°C until parasites reached logarithmic phase (4 days). Next, the cultures were centrifuged and the pellet was suspended in RPMI-1640 or LIT for counting promastigotes using a Neubauer hemocytometer under an optical microscope (Axiostar Plus Carl Zeiss, Jena, Germany) at 400x magnification. Subsequently, parasites were diluted in RPMI-1640 or LIT medium at a final concentration of 1 x 10^6parasites/mL for use in antileishmanial assays.
(§5) The 50% inhibitory concentration (IC50) against L. (V.) braziliensis and L. (L.) infantum was evaluated by determination of the parasite viability using the colorimetric 3-(4,5-dimethylthiazol-2-yl)-2,5-diphenyltetrazolium bromide (MTT) method.[19] Initially, 100 μL of the promastigote suspension prepared in RPMI-1640 or LIT medium (1 × 10^6cells/mL) was added in each well of the 96-well microplate. Parasites were then treated with two-fold serial dilutions (from 3.12 to 400 µg/mL) of Bex-derived analogs prepared in 10% dimethyl sulfoxide (DMSO) (Sigma-Aldrich, St. Louis, USA) and the microplates were incubated at 25°C for 48 h. Next, 20 μL of MTT solution at 5 mg/mL (Sigma-Aldrich, St. Louis, USA) was added to the parasite cultures and the plates were covered with laminated paper and incubated at 37°C for 4 h. Finally, the plates were centrifuged at 1500 rpm for 15 min at 4°C (Heraeus-Megafuge 11R Centrifuge - Thermo Fisher Scientific, Waltham USA) and the formazan crystals formed were dissolved by the addition of 200 μL 10% DMSO. After further incubation for 5 min at room temperature, absorbance at 570 nm of samples measured using a microplate reader (Metller Toledo, Brazil). Meglumine antimoniate (Glucantime®Sanofi-aventis, France) and amphotericin B (Eurofarma, Brazil) were included as positive controls, and 10% DMSO solution was used as a solvent control. Samples containing RPM1-1640 or LIT only were used to control the sterility of media and samples containing inoculum and medium, but not compounds, were employed as growth controls.

[3] = test system: Leishmania (V.) braziliensis (MHOM/BR/75/M2903) promastigotes; assay: Anti-promastigote activity, MTT colorimetric assay; format: cell-based
Method: as §4, §5

[4] = test system: Escherichia coli; design: method as in PMID 16042337; conditions: microdilution broth assays; cited from earlier work
[5] = test system: Streptococcus mutans; design: method as in PMID 16042337; conditions: microdilution broth assays; cited from earlier work
[6] = test system: Staphylococcus aureus; design: method as in PMID 16042337; conditions: microdilution broth assays; cited from earlier work
[7] = test system: Pseudomonas aeruginosa; design: method as in PMID 26166773; conditions: disc diffusion, 2 mg/disk; cited from earlier work
[8] = test system: E. coli extended-spectrum β-lactamases produced; design: method as in PMID 26166773; conditions: disc diffusion, 2 mg/disk; cited from earlier work
[9] = test system: Bacillus subtilis; design: method as in PMID 26166773; conditions: disc diffusion, 2 mg/disk; cited from earlier work
[10] = test system: Klebsiella pneumoniae; design: method as in PMID 26166773; conditions: disc diffusion, 2 mg/disk; cited from earlier work
[11] = test system: S. aureus methicillin-resistant; design: method as in PMID 26166773; conditions: disc diffusion, 2 mg/disk; cited from earlier work
[12] = test system: Enterococcus faecalis; design: method as in PMID 26166773; conditions: disc diffusion, 2 mg/disk; cited from earlier work
[13] = test system: rat mast cells stimulated with concanavalin A and sensitized with immunoglobulin E; design: method as in PMID 2453615; conditions: cited from earlier work
[14] = test system: reverse transcriptase from human immunodeficiency virus(HIV); conditions: cited from earlier work
[15] = test system: Hamster spleen cells; assay: Cytotoxicity, MTT assay; format: cell-based; conditions: 48 h exposure
Method: as §1, §2, §3

[16] = geometric mean of IC50 in LIT and RPMI-1640, read-out: GM (geometric mean of IC50 values) L. infantum
[17] = promastigotes, LIT medium, 48 h, 25°C, MTT, read-out: IC50 L. infantum LIT
[18] = promastigotes, RPMI-1640 medium, 48 h, 25°C, MTT, read-out: IC50 L. infantum RPMI-1640
[19] = geometric mean of IC50 in LIT and RPMI-1640, read-out: GM (geometric mean of IC50 values) L. braziliensis
[20] = promastigotes, LIT medium, 48 h, 25°C, MTT, read-out: IC50 L. braziliensis LIT
[21] = promastigotes, RPMI-1640 medium, 48 h, 25°C, MTT, read-out: IC50 L. braziliensis RPMI-1640
[22] = geometric mean of IC50 in LIT and RPMI-1640
[23] = promastigotes, LIT medium, 48 h, 25°C, MTT
[24] = promastigotes, RPMI-1640 medium, 48 h, 25°C, MTT

Compound	CC50 at 48 h [1] [µg/mL]	IC50 [2, 16] [µg/mL]	IC50 [2, 17] [µg/mL]	IC50 [2, 18] [µg/mL]	IC50 [3, 19] [µg/mL]	IC50 [3, 20] [µg/mL]	IC50 [3, 21] [µg/mL]	also measured
C[C@@H]1[C@H](O)[C@@H](C)/C=C/C=C/C=C/C=C/C=C/C=C/C=C/[C@H](O[C@@H]2O[C@H](C)[C@@H](O)[C@H](N)[C@@H]2O)C[C@@H]2O[C@](O)(C[C@@H](O)C[C@@H](O)[C@H](O)CC[C@@H](O)C[C@@H](O)CC(=O)O[C@H]1C)C[C@H](O)[C@H]2C(=O)O [ANFO, Amphotericin B, reference compound]	89.3 ± 2.24 (≈ 96.7 µM)	41.5 (≈ 45 µM)	41.6 ± 4.27 (≈ 45.1 µM)	41.5 ± 0.99 (≈ 44.9 µM)	33.4 (≈ 36.1 µM)	33.3 ± 3.66 (≈ 36 µM)	33.4 ± 3.01 (≈ 36.1 µM)	
O=c1[nH]c2ccccc2o1 [BOA, benzoxazolin-2-one]								Concentration exhibiting antibacterial effects [4]: 1,000 μg/mL; Concentration exhibiting antibacterial effects [5]: 500 µg/mL; Concentration exhibiting antibacterial effects [6]: 500 µg/mL
O=C1COc2ccccc2N1O [Bex1]			174 ± 3.39 (≈ 1050 µM)	188 ± 3.58 (≈ 1140 µM)		212 ± 6.04 (≈ 1280 µM)	238 ± 6.57 (≈ 1440 µM)	
CC1Oc2ccccc2N(O)C1=O (centres unmarked) [Bex2]	274.3 ± 1.87 (≈ 1530 µM)	108 (≈ 605 µM)	106 ± 5.61 (≈ 592 µM)	111 ± 5.69 (≈ 620 µM)	106 (≈ 591 µM)	103 ± 4.36 (≈ 575 µM)	109 ± 4.44 (≈ 608 µM)	
CCC1Oc2ccccc2N(O)C1=O (centres unmarked) [Bex3]	106 ± 2.26 (≈ 547 µM)	91 (≈ 471 µM)	89 ± 6.43 (≈ 461 µM)	93 ± 6.48 (≈ 481 µM)	94.5 (≈ 489 µM)	92 ± 6.19 (≈ 476 µM)	97 ± 6.24 (≈ 502 µM)	
O=C1C(O)Oc2ccccc2N1O (centres unmarked) [DIBOA, 2,4-dihydroxy-1,4-benzoxazin-3-one]								Concentration exhibiting antibacterial effects [4]: 1,000 μg/mL; Concentration exhibiting antibacterial effects [5]: 500 µg/mL; Concentration exhibiting antibacterial effects [6]: 500 µg/mL
COc1ccc2c(c1)OC(O)C(=O)N2O (centres unmarked) [DIMBOA, 2,4-dihydroxy-7-methoxy-1,4-benzoxazin-3-one]								Antibacterial activity [7]: active; Antibacterial activity [8]: active; Antibacterial activity [9]: active; Antibacterial activity [10]: active; Antibacterial activity [11]: active; Antibacterial activity [12]: active
O=C1Nc2ccccc2OC1O (centres unmarked) [HBOA, 2-hydroxy-1,4-benzoxazin-3-one]								Concentration exhibiting antibacterial effects [4]: 1,000 μg/mL; Concentration exhibiting antibacterial effects [5]: 500 µg/mL; Concentration exhibiting antibacterial effects [6]: 500 µg/mL; Effect on levels of histamine released from rat mast cells [13]: able to reduce levels of histamine
COc1ccc2c(c1)OC(O)C(=O)N2 (centres unmarked) [HMBOA]								Effect on levels of histamine released from rat mast cells [13]: able to reduce levels of histamine
COc1ccc2[nH]c(=O)oc2c1 [MBOA, 6-methoxy-benzoxazolin-2-one]								Inhibition of HIV reverse transcriptase [14]: able to inhibit; Effect on levels of histamine released from rat mast cells [13]: able to reduce levels of histamine
O=C1COc2cccnc2N1O [Pyr1]	> 400	101 (≈ 608 µM)	99 ± 5.61 (≈ 596 µM)	103 ± 5.64 (≈ 620 µM)	111 (≈ 671 µM)	108 ± 5.91 (≈ 650 µM)	115 ± 6.04 (≈ 692 µM)	
CC1Oc2cccnc2N(O)C1=O (centres unmarked) [Pyr2]	> 400	115 (≈ 638 µM)	112 ± 5.34 (≈ 622 µM)	118 ± 5.45 (≈ 655 µM)	102 (≈ 569 µM)	100 ± 5.18 (≈ 555 µM)	105 ± 5.23 (≈ 583 µM)	
CCC1Oc2cccnc2N(O)C1=O (centres unmarked) [Pyr3]			149 ± 6.35 (≈ 767 µM)	160 ± 6.62 (≈ 824 µM)		141 ± 5.94 (≈ 726 µM)	152 ± 6.17 (≈ 783 µM)	
CCCC1Oc2cccnc2N(O)C1=O (centres unmarked) [Pyr4]	202 ± 2.11 (≈ 969 µM)	93 (≈ 447 µM)	91 ± 6 (≈ 437 µM)	95 ± 6.05 (≈ 456 µM)	100 (≈ 483 µM)	98 ± 5.94 (≈ 471 µM)	103 ± 5.99 (≈ 495 µM)	
CCCCC1Oc2cccnc2N(O)C1=O (centres unmarked) [Pyr5]			135 ± 4.13 (≈ 607 µM)	143 ± 4.25 (≈ 643 µM)		142 ± 3.67 (≈ 639 µM)	154 ± 3.85 (≈ 693 µM)	
Meglumine antimoniate [reference compound]								CC50 [15]: >400 µg/mL; GM (geometric mean of IC50 values) L. infantum [2, 22]: 99.47 µg/mL; IC50 L. infantum LIT [2, 23]: 97 ± 3.14 µg/mL; IC50 L. infantum RPMI-1640 [2, 24]: 102 ± 3.54 µg/mL; GM (geometric mean of IC50 values) L. braziliensis [3, 22]: 97.5 µg/mL; IC50 L. braziliensis LIT [3, 23]: 97 ± 4.34 µg/mL; IC50 L. braziliensis RPMI-1640 [3, 24]: 98 ± 4.45 µg/mL
